Patent US9670191B2, “Pyridyl-and pyrimidinyl-substituted pyrrole-, thiophene- and furane-derivatives as kinase inhibitors” (priority 2006, dated 2017)
Where a name gives a salt, the structure may show the parent alone. Read-outs that look alike come from different tables or passages of the source.

Biological target: Cdc7/Dbf4 (Homo sapiens (Human), UniProt O00311)
Assay: Inhibition assay of Cdc7/Dbf4 activity (Dowex resin capture, 33P-ATP, MCM2 substrate)
Assay type: biochemical
Method: Inhibition Assay of Cdc7 Activity
The inhibiting activity of putative Cdc7 inhibitors and the potency of selected compounds is determined through a method of assay based on the use of Dowex resin capture technology.
The assay consists of the transfer of radioactivity labeled phosphate moiety by the kinase to an acceptor substrate. The resulting 33P-labeled product is separated from unreacted tracer, transferred into a scintillation cocktail and light emitted is measured in a scintillation counter.
The inhibition assay of Cdc7/Dbf4 activity is performed according to the following protocol.
The MCM2 substrate is trans-phosphorylated by the Cdc7/Dbf4 complex in the presence of ATP traced with γ^33-ATP. The reaction is stopped by addition of Dowex resin in the presence of formic acid. Dowex resin particles capture unreacted γ^33-ATP and drag it to the bottom of the well while ^33P phosphorylated MCM2 substrate remains in solution. The supernatant is collected, transferred into Optiplate plates and the extent of substrate phosphorylation is evaluated by β counting.
The inhibition assay of Cdc7/Dbf4 activity was performed in 96 wells plate according to the following protocol.
The solvent for test compounds contained 3% DMSO (final concentration 1%) • 10 μl substrate MCM2 (6 μM final concentration), a mixture of cold ATP (2 μM final concentration) and radioactive ATP (1/5000 molar ratio with cold ATP). • 10 μl enzyme (Cdc7/Dbf4, 2 nM final concentration) that started the reaction. The buffer of the reaction consisted in 50 mM HEPES pH 7.9 containing 15 mM MgCl2, 2 mM DTT, 3 uM NaVO3, 2 mM glycerophosphate and 0.2 mg/ml BSA. • After incubation for 60 minutes at room temperature, the reaction was stopped by adding to each well 150 μl of Dowex resin in the presence of 150 mM formic acid. After another 60 min incubation, 50 μL of suspension were withdrawn and transferred into 96-well OPTIPLATEs containing 150 μl of MicroScint 40 (Packard); after 5-10 minutes shaking the plates were read for 1 min in a Packard TOP-Count radioactivity reader.
Experimental data were analyzed by the computer program Assay Explorer using the four parameter logistic equation: y=bottom+(top−bottom)/(1+10^((log IC50−x)*slope)) where x is the logarithm of the inhibitor concentration, y is the response; y starts at bottom and goes to top with a sigmoid shape.

[1] = MCM2 substrate 6 μM, ATP 2 μM, enzyme 2 nM, 60 minutes at room temperature, read-out: IC50 values on Cdc7/Dbf4

Chain of Cdc7/Dbf4 (O00311 whole entry, looked up, species assumed): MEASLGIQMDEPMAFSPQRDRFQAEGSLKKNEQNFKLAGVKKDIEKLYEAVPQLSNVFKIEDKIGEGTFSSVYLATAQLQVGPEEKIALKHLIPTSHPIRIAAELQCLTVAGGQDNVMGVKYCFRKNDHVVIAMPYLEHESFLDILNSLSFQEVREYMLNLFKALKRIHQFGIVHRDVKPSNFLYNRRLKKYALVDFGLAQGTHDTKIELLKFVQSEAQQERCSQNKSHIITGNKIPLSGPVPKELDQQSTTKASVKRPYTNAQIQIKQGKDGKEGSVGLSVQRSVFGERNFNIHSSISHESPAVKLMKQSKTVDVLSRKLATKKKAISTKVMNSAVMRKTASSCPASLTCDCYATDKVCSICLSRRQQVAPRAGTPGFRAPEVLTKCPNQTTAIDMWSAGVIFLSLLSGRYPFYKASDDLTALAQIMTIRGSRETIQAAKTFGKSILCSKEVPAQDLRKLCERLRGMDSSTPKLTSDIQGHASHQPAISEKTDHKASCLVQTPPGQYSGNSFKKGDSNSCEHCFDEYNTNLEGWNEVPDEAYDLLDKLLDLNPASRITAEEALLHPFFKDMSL
Chain of Cdc7/Dbf4 (Q9UBU7 whole entry partner, looked up, species assumed): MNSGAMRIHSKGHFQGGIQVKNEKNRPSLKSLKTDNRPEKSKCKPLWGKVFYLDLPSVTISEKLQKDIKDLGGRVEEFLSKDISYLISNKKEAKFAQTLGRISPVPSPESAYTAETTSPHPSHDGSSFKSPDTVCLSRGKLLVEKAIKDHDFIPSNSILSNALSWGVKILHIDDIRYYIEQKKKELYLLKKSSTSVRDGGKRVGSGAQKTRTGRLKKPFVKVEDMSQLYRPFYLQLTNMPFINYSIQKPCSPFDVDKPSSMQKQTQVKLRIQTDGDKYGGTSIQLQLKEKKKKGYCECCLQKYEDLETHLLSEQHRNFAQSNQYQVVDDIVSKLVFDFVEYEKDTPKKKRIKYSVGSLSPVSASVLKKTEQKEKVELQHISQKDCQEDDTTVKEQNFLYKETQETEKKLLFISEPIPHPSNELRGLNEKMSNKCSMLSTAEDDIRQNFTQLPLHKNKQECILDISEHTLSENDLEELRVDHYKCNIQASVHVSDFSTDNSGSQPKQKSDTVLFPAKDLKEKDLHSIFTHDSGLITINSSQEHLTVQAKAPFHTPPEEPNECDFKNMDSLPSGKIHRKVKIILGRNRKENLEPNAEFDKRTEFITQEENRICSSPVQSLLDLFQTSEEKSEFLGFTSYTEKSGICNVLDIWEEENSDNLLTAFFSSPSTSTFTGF

| SMILES | IC50 [nM] | IC50 [1] [nM] |
| --- | --- | --- |
| NC(=O)c1cc(-c2ccncc2)[nH]c1-c1ccccc1 [Compound A1, 2-Phenyl-5-pyridin-4-yl-1H-pyrrole-3-carboxylic acid amide] | 1 to 100 | – |
| NC(=O)c1cc(-c2ccncc2)[nH]c1-c1ccccc1F [Compound A2, 2-(2-Fluoro-phenyl)-5-pyridin-4-yl-1H-pyrrole-3-carboxylic acid amide hydrochloride] | 1 to 100 | – |
| NC(=O)c1cc(-c2ccncc2)[nH]c1-c1cccc(F)c1 [Compound A3, 2-(3-Fluoro-phenyl)-5-pyridin-4-yl-1H-pyrrole-3-carboxylic acid amide] | 1 to 100 | – |
| NC(=O)c1cc(-c2ccncc2)[nH]c1-c1ccc(F)cc1 [Compound A4, 2-(4-Fluoro-phenyl-5-pyridin-4-yl-1H-pyrrole-3-carboxylic acid amide hydrochloride] | 1 to 100 | – |
| NC(=O)c1cc(-c2ccncc2)[nH]c1-c1cccc(Br)c1 [Compound A5, 2-(3-Bromo-phenyl-5-pyridin-4-yl-1H-pyrrole-3-carboxylic acid amide hydrochloride] | 1 to 100 | – |
| NC(=O)c1cc(-c2ccncc2)[nH]c1-c1ccc(Br)cc1 [Compound A6, 2-(4-Bromo-phenyl)-5-pyridin-4-yl-1H-pyrrole-3-carboxylic acid amide hydrochloride] | 1 to 100 | – |
| Cc1ccccc1-c1[nH]c(-c2ccncc2)cc1C(N)=O [Compound A7, 5-Pyridin-4-yl-2-o-tolyl-1H-pyrrole-3-carboxylic acid amide] | – | 1 to 100 |
| Cc1cccc(-c2[nH]c(-c3ccncc3)cc2C(N)=O)c1 [Compound A8, 5-Pyridin-4-yl-2-m-tolyl-1H-pyrrole-3-carboxylic acid amide] | 1 to 100 | – |
| Cc1ccc(-c2[nH]c(-c3ccncc3)cc2C(N)=O)cc1 [Compound A9, 5-pyridin-4-yl-2-p-tolyl-1H-pyrrole-3-carboxylic acid amide] | 1 to 100 | – |
| COc1ccccc1-c1[nH]c(-c2ccncc2)cc1C(N)=O [Compound A10, 2-(2-Methoxy-phenyl)-5-pyridin-4-yl-1H-pyrrole-3-carboxylic acid amide hydrochloride] | 1 to 100 | – |
| COc1cccc(-c2[nH]c(-c3ccncc3)cc2C(N)=O)c1 [Compound A11, 2-(3-Methoxy-phenyl)-5-pyridin-4-yl-1H-pyrrole-3-carboxylic acid amide] | 1 to 100 | – |
| COc1ccc(-c2[nH]c(-c3ccncc3)cc2C(N)=O)cc1 [Compound A12, 2-(4-Methoxy-phenyl)-5-pyridin-4-yl-1H-pyrrole-3-carboxylic acid amide hydrochloride] | 1 to 100 | – |
| Cc1cccc(-c2[nH]c(-c3ccncc3)cc2C(N)=O)c1C [Compound A20, 2-(2,3-Dimethyl-phenyl)-5-pyridin-4-yl-1H-pyrrole-3-carboxylic acid amide] | – | 1 to 100 |
| NC(=O)c1cc(-c2ccncc2)[nH]c1-c1ccsc1 [Compound C1, 5-Pyridin-4-yl-2-thiophen-3-yl-1H-pyrrole-3-carboxylic acid amide] | – | 1 to 100 |
| NC(=O)c1cc(-c2ccncc2)[nH]c1-c1ccoc1 [Compound C2, 2-Furan-3-yl-5-pyridin-4-yl-1H-pyrrole-3-carboxylic acid amide] | – | 1 to 100 |
| NC(=O)c1cc(-c2ccncc2F)[nH]c1-c1ccccc1 [Compound E1, 5-(3-Fluoro-pyridin-4-yl)-2-phenyl-1H-pyrrole-3-carboxylic acid amide] | 1 to 100 | – |
| NC(=O)c1cc(-c2ccnc(N)n2)[nH]c1-c1ccccc1 [Compound F1, 5-(2-Amino-pyrimidin-4-yl)-2-phenyl-1H-pyrrole-3-carboxylic acid amide] | 1 to 100 | – |
| NC(=O)c1cc(-c2ccnc(N)n2)[nH]c1-c1ccsc1 [Compound G1, 5-(2-amino-pyrimidin-4-yl)-2-thiophen-3-yl-1H-pyrrole-3-carboxylic acid amide] | 1 to 100 | – |
| NC(=O)c1cc(-c2ccnc(Nc3ccccc3)n2)[nH]c1-c1ccccc1 [Compound H1, 2-Phenyl-5-(2-phenylamino-pyrimidin-4-yl)-1H-pyrrole-3-carboxylic acid amide] | 1 to 100 | – |
| CCn1c(-c2ccnc(N)n2)cc(C(N)=O)c1-c1ccccc1 [Compound L1, 5-(2-Amino-pyrimidin-4-yl)-1-ethyl-2-phenyl-1H-pyrrole-3-carboxylic acid amide] | 1 to 100 | – |
| CC(C)NC(=O)c1cc(-c2ccnc(N)n2)[nH]c1-c1ccccc1 [Compound M2, 5-(2-Amino-pyrimidin-4-yl)-2-phenyl-1H-pyrrole-3-carboxylic acid isopropylamide] | 1 to 100 | – |
| Nc1nccc(-c2cc(C(=O)NCc3ccccc3)c(-c3ccccc3)[nH]2)n1 [Compound M3, 5-(2-Amino-pyrimidin-4-yl)-2-phenyl-1H-pyrrole-3-carboxylic acid benzylamide] | 1 to 100 | – |
| Nc1nccc(-c2cc(C(=O)NCC3CCCCC3)c(-c3ccccc3)[nH]2)n1 [Compound M4, 5-(2-Amino-pyrimidin-4-yl)-2-phenyl-1H-pyrrole-3-carboxylic acid cyclohexylmethyl-amide] | – | 1 to 100 |
